Data from the CheMixHub viscosity set.
Several values for one entry are separate records, joined by “and”; a condition that tells them apart may be missing. Equal entries are not always repeated.

Cc1ccccc1
Settings | viscosity
293.15 K, 100 kPa | 0.598 mPa·s
293.15 K, 101.2 kPa | 0.6003 mPa·s
293.15 K, 101.32 kPa | 0.5859 mPa·s
293.15 K, 101.33 kPa | 0.592 mPa·s
295.85 K, 101.33 kPa | 0.5984 mPa·s
298 K, 101.33 kPa | 0.546 mPa·s
298.15 K, 100 kPa | 0.551 mPa·s
298.15 K, 101.33 kPa | 0.506 mPa·s
302.4 K, 101 kPa | 0.9538 mPa·s
303 K, 100 kPa | 0.5268 mPa·s
303 K, 101.33 kPa | 0.514 mPa·s and 0.515 mPa·s
303.15 K, 100 kPa | 0.539 mPa·s
303.15 K, 101.2 kPa | 0.5357 mPa·s
303.15 K, 101.3 kPa | 0.5272 mPa·s
305.45 K, 101.33 kPa | 0.5375 mPa·s
308 K, 100 kPa | 0.4984 mPa·s
308.15 K, 100 kPa | 0.498 mPa·s
308.15 K, 101.2 kPa | 0.5069 mPa·s
308.15 K, 101.3 kPa | 0.492 mPa·s and 0.4981 mPa·s and 0.503 mPa·s
308.5 K, 101 kPa | 0.512 mPa·s
312.65 K, 101.33 kPa | 0.4982 mPa·s
313 K, 100 kPa | 0.4811 mPa·s
313 K, 101.33 kPa | 0.463 mPa·s and 0.461 mPa·s
313.15 K, 100 kPa | 0.495 mPa·s
313.15 K, 101 kPa | 0.4601 mPa·s and 0.4804 mPa·s and 0.559 mPa·s
313.15 K, 101.2 kPa | 0.4807 mPa·s
313.15 K, 101.33 kPa | 0.478 mPa·s and 0.478 mPa·s and 0.481 mPa·s
318.15 K, 100 kPa | 0.44 mPa·s
318.15 K, 101.2 kPa | 0.4571 mPa·s
318.15 K, 101.32 kPa | 0.4428 mPa·s
318.15 K, 101.33 kPa | 0.458 mPa·s
322.65 K, 101.33 kPa | 0.45 mPa·s
323 K, 101.33 kPa | 0.413 mPa·s and 0.418 mPa·s
323.15 K, 101 kPa | 0.4435 mPa·s and 0.418 mPa·s and 0.4321 mPa·s

CCCc1ccccc1
Settings | viscosity [mPa·s]
303.15 K, 101 kPa | 0.7591
303.15 K, 101.3 kPa | 0.75
308.15 K, 101.33 kPa | 0.7001
313.15 K, 102 kPa | 0.649
323.15 K, 102 kPa | 0.573
